Reference: ChEMBL document CHEMBL1136243, “Synthetic dihydropacidamycin antibiotics: a modified spectrum of activity for the pacidamycin class” (2003)
Converted amounts (≈) assume the structure as drawn.

What was measured:
Assay type in all cases: functional
[1] = tested on: Mycobacterium tuberculosis; test: Antibacterial activity against Mycobacterium tuberculosis TN913
[2] = tested on: Mycobacterium tuberculosis; test: Antibacterial activity against Mycobacterium tuberculosis H37Rv
[3] = tested on: Mycobacterium tuberculosis; test: Antibacterial activity against Mycobacterium tuberculosis TN1618 (P)
[4] = tested on: Mycobacterium tuberculosis; test: Antibacterial activity against Mycobacterium tuberculosis TN565 (W)
[5] = tested on: Escherichia coli; test: Antibacterial activity against Escherichia coli wild-type
[6] = tested on: Pasteurella multocida; test: Antibacterial activity against Pasteurella multocida wild-type
[7] = tested on: Pseudomonas aeruginosa; test: Antibacterial activity against Pseudomonas aeruginosa wild-type
[8] = tested on: Acinetobacter baumannii; test: Antibacterial activity against Acinetobacter baumannii resistant to (ERY) erythromycin;
[9] = tested on: Citrobacter freundii; test: Antibacterial activity against Citrobacter freundii resistant to (GEN) gentamicin; (ERY) erythromycin;
[10] = tested on: Escherichia coli; test: Antibacterial activity against Escherichia coli resistant to (GEN) gentamicin; (RIF) rifampicin; (SM) streptomycin; (SP) spectinomycin; (SU) sulfonamides; (TET) tetracycline; (Hg)mercury
[11] = tested on: Klebsiella pneumoniae; test: Antibacterial activity against Klebsiella pneumoniae
[12] = tested on: Klebsiella pneumoniae; test: Antibacterial activity against Klebsiella pneumoniae resistant to (AMP) ampicillin; (GEN) gentamicin; NAL (nalidixic acid); (TET) tetracycline
[13] = tested on: Salmonella sp.; test: Antibacterial activity against Salmonella species. resistant to (AMP) ampicillin; (ERY) erythromycin
[14] = tested on: Enterobacter cloacae; test: Antibacterial activity against Enterobacter cloacae resistant to (ERY) erythromycin;
[15] = tested on: Citrobacter koseri; test: Antibacterial activity against Citrobacter diversus
[16] = tested on: Escherichia coli; test: Antibacterial activity against Escherichia coli resistant to (AMP) ampicillin;) KAN) kanamycin; (NM) neomycin; (RIF) rifampicin; (TET) tetracycline; (Hg)mercury
[17] = Escherichia coli, read-out: MIC

Compound | MIC [1] [µg/mL] | MIC [2] [µg/mL] | MIC [3] [µg/mL] | MIC [4] [µg/mL] | other results
CC(C)C[C@H](N)C(=O)N(C)[C@@H](C)[C@H](NC(=O)[C@H](Cc1ccccc1)NC(=O)N[C@@H](Cc1c[nH]c2ccccc12)C(=O)O)C(=O)NC[C@H]1C[C@@H](O)[C@H](n2ccc(=O)[nH]c2=O)O1 | 30 (≈ 36.1 µM) | 30 (≈ 36.1 µM) | 10 (≈ 12 µM) | 30 (≈ 36.1 µM) | –
C[C@H](N)C(=O)N(C)[C@@H](C)[C@H](NC(=O)[C@H](Cc1ccccc1)NC(=O)N[C@@H](Cc1ccc2ccccc2c1)C(=O)O)C(=O)NC[C@H]1C[C@@H](O)[C@H](n2ccc(=O)[nH]c2=O)O1 | 30 (≈ 37.5 µM) | 30 (≈ 37.5 µM) | 10 (≈ 12.5 µM) | 30 (≈ 37.5 µM) | –
CSCC[C@H](NC(=O)N[C@@H](Cc1ccc(O)cc1)C(=O)O)C(=O)N[C@H](C(=O)NC[C@H]1C[C@@H](O)[C@H](n2ccc(=O)[nH]c2=O)O1)[C@H](C)N(C)C(=O)[C@H](C)N | > 30 | > 30 | > 30 | > 30 | –
C[C@H](N)C(=O)N(C)[C@@H](C)[C@H](NC(=O)[C@H](Cc1ccc(F)cc1)NC(=O)N[C@@H](Cc1c[nH]c2ccccc12)C(=O)O)C(=O)NC[C@H]1C[C@@H](O)[C@H](n2ccc(=O)[nH]c2=O)O1 | 8 (≈ 9.9 µM) | 8 (≈ 9.9 µM) | 8 (≈ 9.9 µM) | 4 (≈ 4.95 µM) | –
C[C@H](N)C(=O)N(C)[C@@H](C)[C@H](NC(=O)[C@H](Cc1ccccc1)NC(=O)N[C@@H](Cc1c[nH]c2ccccc12)C(=O)O)C(=O)NC[C@H]1CC(O)[C@H](n2ccc(=O)[nH]c2=O)O1 (some centres undefined) | 8 (≈ 10.1 µM) | 8 (≈ 10.1 µM) | 8 (≈ 10.1 µM) | 4 (≈ 5.06 µM) | –
CC(C)C[C@H](NC(=O)N[C@@H](Cc1c[nH]c2ccccc12)C(=O)O)C(=O)N[C@H](C(=O)NC[C@H]1C[C@@H](O)[C@H](n2ccc(=O)[nH]c2=O)O1)[C@H](C)N(C)C(=O)CN | > 30 | > 30 | > 30 | > 30 | –
C[C@@H]([C@H](NC(=O)[C@H](Cc1ccccc1)NC(=O)N[C@@H](Cc1c[nH]c2ccccc12)C(=O)O)C(=O)NC[C@H]1C[C@@H](O)[C@H](n2ccc(=O)[nH]c2=O)O1)N(C)C(=O)CN | – | – | – | – | MIC [5, 17]: 256 µg/mL (≈ 330 µM); MIC [6]: 64 µg/mL (≈ 82.5 µM); MIC [7]: 8 µg/mL (≈ 10.3 µM)
C[C@H](N)C(=O)N(C)[C@@H](C)[C@H](NC(=O)[C@H](Cc1ccc(F)cc1)NC(=O)N[C@@H](Cc1ccc(O)cc1)C(=O)O)C(=O)NC[C@H]1C[C@@H](O)[C@H](n2ccc(=O)[nH]c2=O)O1 | 8 (≈ 10.2 µM) | 10 (≈ 12.7 µM) | 10 (≈ 12.7 µM) | 8 (≈ 10.2 µM) | MIC [8]: ≥ 64 µg/mL; MIC [9]: 1 µg/mL (≈ 1.27 µM); MIC [10]: 8 µg/mL (≈ 10.2 µM); MIC [5]: 4 µg/mL (≈ 5.1 µM); MIC [5, 17]: 4 µg/mL (≈ 5.1 µM); MIC [11]: 32 µg/mL (≈ 40.8 µM); MIC [12]: ≥ 64 µg/mL; MIC [6]: 512 µg/mL (≈ 652 µM); MIC [7]: 64 µg/mL (≈ 81.5 µM); MIC [13]: 8 µg/mL (≈ 10.2 µM); MIC [14]: ≥ 64 µg/mL; MIC [15]: 16 µg/mL (≈ 20.4 µM); MIC [16]: 8 µg/mL (≈ 10.2 µM)
C[C@H](N)C(=O)N(C)[C@@H](C)[C@H](NC(=O)[C@H](Cc1ccc(-c2ccccc2)cc1)NC(=O)N[C@@H](Cc1c[nH]c2ccccc12)C(=O)O)C(=O)NC[C@H]1C[C@@H](O)[C@H](n2ccc(=O)[nH]c2=O)O1 | 4 (≈ 4.62 µM) | 8 (≈ 9.24 µM) | 10 (≈ 11.5 µM) | 4 (≈ 4.62 µM) | –
C[C@H](N)C(=O)N(C)[C@@H](C)[C@H](NC(=O)[C@H](Cc1ccc(C(F)(F)F)cc1)NC(=O)N[C@@H](Cc1c[nH]c2ccccc12)C(=O)O)C(=O)NC[C@H]1C[C@@H](O)[C@H](n2ccc(=O)[nH]c2=O)O1 | 4 (≈ 4.66 µM) | 8 (≈ 9.33 µM) | 8 (≈ 9.33 µM) | 4 (≈ 4.66 µM) | –
C[C@H](NC(=O)N[C@@H](Cc1c[nH]c2ccccc12)C(=O)O)C(=O)N[C@H](C(=O)NC[C@H]1C[C@@H](O)[C@H](n2ccc(=O)[nH]c2=O)O1)[C@H](C)N(C)C(=O)[C@@H](N)Cc1ccc(O)cc1 [PACIDAMYCIN] | > 30 | > 30 | > 30 | > 30 | MIC [5, 17]: 256 µg/mL (≈ 318 µM); MIC [6]: 128 µg/mL (≈ 159 µM); MIC [7]: 16 µg/mL (≈ 19.9 µM)
